Measured values from article PMC8297402, “Trifluoromethyl-substituted 3,5-bis(arylidene)-4-piperidones as potential anti-hepatoma and anti-inflammation agents by inhibiting NF-кB activation” (Journal of Enzyme Inhibition and Medicinal Chemistry, 2021).

Legend:
p-JNK = test: Western blot, LPS-induced phosphorylation of JNK in RAW264.7 cells; assay type: cell-based, mouse; settings: RAW264.7, 1.0, 2.0, 4.0 μM, LPS 1.0 μg/mL 30 min
Text: (§1) Primary antibodies (anti-Bax, Abcam, ab32503; anti-Bcl-2, Abcam, ab194583; anti-Cleaved caspase-3, Abcam, ab2302; anti-p65, Cell Signalling Technology, 8242S; anti-p-p65, Cell Signalling Technology, 3033S; anti-IκBα, Cell Signalling Technoligy, 4812S; anti-p-IκBα, Cell Signalling Technology, 2859S; anti-p38, Cell Signalling Technology, 8690S; anti-p-p38, Cell Signalling Technology, 4511S; anti-JNK, Cell Signalling Technology, 9258 T; anti-p-JNK, Santa Cruz Biotechnology, sc-6254; anti-GAPDH, Abcam, ab181602), and goat anti-rabbit IgG/HRP secondary antibodies (Cell Signalling Technology, 98164 s) were purchased and used according to the manufacturer’s instructions. HepG2 cell lines were incubated with different doses of BAP 16 (1.0, 2.0, 4.0 μM) for 24 h (Bax, Cleaved caspase-3, Bcl-2). RAW264.7 cells were incubated with BAP 16 for 1 h, then treated with LPS (1.0 μg/mL) for 30 min. Afterward cell extraction was performed and extracts were used for Western blot analysis. Next, 30 μg protein of cell lysates were separated by 12% SDS-PAGE gel. The proteins were then transferred onto nitrocellulose membranes. […] By using Quantity One software (Bio-Rad), western blotting results were quantified from more than three separate experiments.

p-p65 = test: Western blot, LPS-stimulated phosphorylation of p65 in RAW264.7 cells; assay type: cell-based, mouse; settings: RAW264.7, 1.0, 2.0, 4.0 μM, LPS 1.0 μg/mL 30 min
Text: as §1

[1] = Modified MTT cytotoxicity assay, normal heptical cell line HHL-5; settings: human, HHL-5 cells (normal hepatic cell line)
A549 = test: Modified MTT cytotoxicity assay, A549
Procedure: To further verify the anti-tumour activity, one human non-small cell lung cancer cell line (A549), one human ovarian cancer cell line (A2780), and one human normal heptical cell line (HHL-5) were screened by BAPs (4–30) using a modified MTT assay (Supporting Information). DOX and curcumin were selected as positive controls.
The optical density (OD) value of each well was measured on a
multi-well plate reader (TECAN, Mӓnnedorf, Switzerland ) at 570 nm.
Every IC 50 value was the average of three replicates.
Doxorubicin (DOX) and Curcumin were used as positive controls.

p-IκBα = test: Western blot, LPS-stimulated phosphorylation of IκBα in RAW264.7 cells; assay type: cell-based, mouse; settings: RAW264.7, 1.0, 2.0, 4.0 μM, LPS 1.0 μg/mL 30 min
Text: as §1

Bax = test: Western blot, Bax expression in HepG2 cells; assay type: cell-based, Human; settings: HepG2, 1.0, 2.0, 4.0 μM, 24 h
Text: as §1

For `O=C1C(=Cc2cccc(C(F)(F)F)c2)CN(S(=O)(=O)c2ccc(C(F)(F)F)cc2)CC1=Cc1cccc(C(F)(F)F)c1` [BAP 16], the “Expression level of p-JNK” value (p-JNK) was “significantly decreased”, the “Expression level of p-p65” value (p-p65) was “significantly decreased in a dose-dependent manner” and the IC50 [1] was 6.2 ± 0.4 µM. For the same molecule, the IC50 (A549; Homo sapiens, A549, read-out: Cytotoxicity IC50 A549, MTT, non-small cell lung cancer cell line) was 0.43 ± 0.08 µM, the “SI (selectivity index) A549” value (A549; quotient of IC50 for normal (HHL-5) and malignant (A549) cells) was 14.4 and the “Expression level of p-IκBα” value (p-IκBα) was “significantly decreased in a dose-dependent manner”. The “Expression of pro-apoptotic protein Bax” value (Bax) was “significantly increased”.
